US20170138946A1, “BIOMARKERS FOR RESPONSE TO EZH2 INHIBITORS” (Memorial Sloan-Kettering Cancer Center, priority 2014, published 2017)

Legend:
[1] = system: MSTO-211H and Meso10 cell lines overexpressing EZH2; test: Sensitivity to EPZ011989 of cell lines overexpressing EZH2; assay type: cell-based, human; details: MSTO-211H and Meso10 overexpressing EZH2
Text: (§1) FIG. 20A-D. BAP1 mutant cell lines are most sensitive to EZH2 inhibition. (a) Meso10 cell line overexpressing EZH2 increasingly proliferated after injection into the flank of NOD-SCID mice. (b) EZH2 was overexpressed in MSTO-211H and Meso10 cell lines. […] (c) BAP1-mutant cells became less invasive when treated with the EZH2 inhibitor GSK126. (d) E-Cadherin expression increased in the cell line H226 following treatment with GSK126.

BAP1-mutant cell lines [2] = test: 3D Cell Titer Glo viability assay with EPZ011989; assay type: cell-based, human; details: 3 weeks treatment at 1.25 μM, compared with wild-type cell lines
Text: (§2) FIG. 16A-H. BAP1-mutant mesothelioma cell lines and xenograft models are sensitive to EZH2 inhibition. (a) Expression of EZH2 transcripts in TCGA mesothelioma patients compared to matched normals. (b) Annexin V assays in BAP1 wild-type and mutant cell lines expressing either empty vector or hairpins targeting EZH2. (c) Quantitation of Annexin V experiments in mesothelioma cell lines (d) Tumor size of Meso10 and H226 cell lines expressing EZH2 hairpins implanted into NOD-SCID mice, n=6/group. (e) 2D Cell Titer Glo viability assays after 2 week treatment with EPZ011989 at 1.25 μM. (f) 3D Cell Titer Glo viability assays after 3 weeks EPZ011989 treatment at 1.25 μM. (g) Tumor size formation from BAP1 mutant (MSTO and Meso10) or (h) wild-type cells (H226 and H2452) implanted into NOD-SCID mice and treated with either vehicle or 500 mg/kg BID EPZ011989. Tumors were measured 3× weekly, n=6/group. Target inhibition was assessed by histone western blots in extracted tumors (shown in respective figures). Lung pathology of H2452 cells with vehicle and EPZ1011989 treatment. Arrow indicates bulk metastasized tumor. Statistics were calculated with Student t-test; *p<0.05, **p<0.005; ±SEM values reported.

BAP1-mutant tumor = test: Mesothelioma xenografts in NOD-SCID mice treated with EPZ011989, BAP1-mutant tumors; assay type: in vivo; details: 500 mg/kg BID
Text: as §2, with “(g) Tumor size formation from BAP1 mutant (MSTO and Meso10) or (h) wild-type cells (H226 and H2452) implanted into NOD-SCID mice and treated with either vehicle or 500 mg/kg BID EPZ011989.” left out
(§3) Groups of 10 week old NOD-SCID mice were injected subcutaneously in the flank with 6-10×10^6 mesothelioma cell lines (MSTO-211H, Meso10, H226 and H2452) in a 1:1 mixture of matrigel and media. […] Tumor volumes were assessed in three dimensions using a caliper. […]

wild-type tumors = test: Mesothelioma xenografts in NOD-SCID mice treated with EPZ011989, BAP1 wild-type tumors; assay type: in vivo; details: 500 mg/kg BID
Text: as §2, with “Lung pathology of H2452 cells with vehicle and EPZ1011989 treatment. Arrow indicates bulk metastasized tumor.” left out
as §3

Bap1 KO mice = Bap1 KO mice treated with EPZ011989 (genetic Bap1 KO trial); assay type: in vivo; details: 500 mg/kg BID orally for 16 days
Text: FIG. 11A-K. Proliferation induced by Bap1 deletion is rescued by loss of Ezh2. (a) Western blot of H3K27me3 levels in histones purified from bone marrow of Bap1 KO, Ezh2 KO, Bap1/Ezh2 KO and control mice. (b) Representative images of spleens and (c) enumeration of spleen weight from the indicated genotypes of mice, 3 weeks post pIpC. (d) Peripheral white blood cell counts and (e) hematocrit percentages as quantified by a Hemavet. (f) Flow cytometric enumeration of myeloid progenitors (Lin^− c-Kit^+Sca1^−) and (g) Mature myeloid cells (Mac1^+Gr1^+) (h) Cell cycle analyses in myeloid progenitors using Ki67 and DAPI stain (n=3/group) (i) Western blot for H3K27me3 levels in mice (n=5/group) treated with EPZ011989 twice a day at 500 mg/kg for 16 days. (j) Spleen weights and (k) white blood cell counts after treatment. Unless otherwise indicated, […], n=5/Ezh2 KO, n=8/Bap1 KO, and n=11/Bap1/Ezh2 KO, Statistics were calculated with Student t-test; *p<0.05, **p<0.005; ±SEM values reported. Groups of 10 week old NOD-SCID mice were injected subcutaneously in the flank with 6-10×10^6 mesothelioma cell lines (MSTO-211H, Meso10, H226 and H2452) in a 1:1 mixture of matrigel and media. When tumors reached a size of approximately 60-80 mm^3, treatment with either vehicle (0.5% NaCMC+0.1% Tween-80 in water) or EPZ011989 was initiated. Either EPZ011989 or vehicle were given orally BID at a concentration of 500 mg/kg for the duration of the experiment. Tumor volumes were assessed in three dimensions using a caliper. Tumors or lung tissue were extracted following treatment and utilized for Western blotting to assess target inhibition. […] Researchers were not blinded in these experiments.

BAP1-mutant cell lines [3] = test: 2D Cell Titer Glo viability assay with EPZ011989; assay type: cell-based, human; details: 2 week treatment at 1.25 μM, compared with wild-type cell lines
Text: as §2

[4] = system: E-Cadherin expression in H226; test: E-Cadherin expression after GSK126 treatment; assay type: cell-based, human; details: cell line H226
Text: as §1

BAP1-mutant cells = test: Matrigel invasion assay with GSK126; assay type: cell-based, human; details: GSK126 0-2 μM for 7 days
Description: Mesothelioma cells (MSTO-211H, H2373, H226 and H2452) were seeded in T75 flasks (100,000 cells). 12 hours later the plated cells were treated with GSK126 (0-2 μM) (Chemitek) and then left to proliferate for 7 days. 250,000 treated cells were then placed on the top of a Matrigel invasion chamber (BD Biosciences, cat no. 354480) in serum free media while the lower chamber contained media with serum. 22 hours later the cells on the bottom of the membrane were stained with crystal violet and quantitated with ImageJ.

[5] = system: BAP1-mutant mesothelioma cells (H2452 xenografts); test: H2452 xenografts in NOD-SCID mice treated with GSK126; assay type: in vivo
Description: FIG. 21A-C. BAP1-mutant mesothelioma cell lines and xenograft models are sensitive to EZH2 inhibition. (a) Tumor volume of H2452 xenografts treated daily with GSK126 at 150 mg/kg or vehicle (n=10 mice per group). 5 mice from each group were euthanized following 16 days of treatment to assess H3K27me3 depletion. The remaining mice were treated for the remainder of the trial. (b) Histone ELISA and Western blot analysis of H3K27me3 levels in tumors from in vivo treated mice after 16 days treatment. (c) H&E staining, Ki67 staining and TUNEL staining of tumors extracted from vehicle treated and GSK126 treated mice, 10× magnification.
Next, whether EZH2 inhibition might inhibit the survival of BAP1-mutant mesothelioma cell lines was assessed. EZH2 silencing induced apoptosis in BAP1-mutant cell lines, whereas wild-type cell lines continued to proliferate (FIGS. 16B,C). EZH2 silencing abrogated in vivo tumor formation of BAP1-mutant but not wild-type cell lines (FIG. 16D). Overexpression of EZH2 in BAP1 wild-type cell lines increased proliferation (FIG. 20A) and sensitivity to EZH2 inhibition (FIG. 20B). […] Next, the impact of EZH2 inhibition in vivo was assessed. […] EZH2 inhibition abrogated pulmonary metastasis in a BAP1-mutant mesothelioma cell line with metastatic potential (FIG. 16G) consistent with a role for BAP1/EZH2 in metastasis (Harbour et al., 2010). EZH2 inhibition reduced invasion and increased E-Cadherin expression in vitro (FIGS. 20C-D). Next, the impact of EZH2 inhibition using the […] GSK126 was assessed. BAP1-mutant mesothelioma cells were injected into the flank of NOD-SCID mice, and then initiated treatment with either vehicle or 150 mg/kg GSK126 after tumor formation.

[6] = tumors extracted from treated mice, 150 mg/kg

SMILES | sensitivity with EZH2 overexpression [1] | sensitivity of BAP1-mutant cell lines in 3D culture (BAP1-mutant cell lines [2]) | BAP1-mutant tumor size (BAP1-mutant tumor; compared to vehicle treated mice) | pulmonary metastasis (BAP1-mutant tumor; BAP1-mutant mesothelioma cell line with metastatic potential (H2452)) | response of wild-type tumors (tumor size) (wild-type tumors) | splenomegaly (spleen weights) (Bap1 KO mice) | white blood cell counts (Bap1 KO mice) | H3K27me3 (Bap1 KO mice; Western blot) | sensitivity of BAP1-mutant cell lines in 2D culture (BAP1-mutant cell lines [3]) | E-Cadherin expression [4] | invasion (BAP1-mutant cells) | tumor size ([5]; 150 mg/kg daily, compared to vehicle treated mice) | H3K27me3 in tumors in vivo ([5]; 150 mg/kg, after 16 days treatment, histone ELISA and Western blot) | Ki67 staining [5, 6] | TUNEL staining [5, 6]
CCN(c1cc(C#CCN2CCOCC2)cc(C(=O)NCc2c(C)cc(C)[nH]c2=O)c1C)[C@H]1CC[C@H](N(C)CCOC)CC1 [EPZ011989] | increasingly sensitive | more sensitive | significantly reduced | abrogated | less/not responsive | decreased | decreased | decreased | more sensitive |  |  |  |  |  | 
CC[C@H](C)n1cc(C)c2c(C(=O)NCc3c(C)cc(C)[nH]c3=O)cc(-c3ccc(N4CCNCC4)nc3)cc21 [GSK126] |  |  |  |  |  |  |  |  |  | increased | less invasive | significantly reduced | significantly attenuated | reduced | increased
